Several values for one entry are separate records, joined by “and”; a condition that tells them apart may be missing. Equal values may be shown once.
System: human bone marrow MSC
Experiment: Microarray gene expression analysis of MSC (Illumina Human HT12 Expression BeadChip)
Assay type: cell-based
Conditions: Tre(+) 250 μg/mL, 24 h
Experimental: Human bone marrow MSC were expanded and seeded into six (6) T225 flasks using standard growth medium (Table 1). At 95-99% confluency, cells were thoroughly washed with PBS. Three (3) flasks were replenished with basal media containing 250 μg/mL treprostinil, (+)Tre, and the remaining three (3) flasks were replenished with unsupplemented basal media, (−)Tre. After 24 hours of culture, representative images were captured from (+) Tre and (−) Tre cultures. Conditioned media was collected from each replicate, divided into two samples of appropriate volumes, and analyzed separately for: 1) secreted proteins (Myriad RBM InflammationMAP® 1.0) and 2) exosome RNA content. Cells were lysed directly from culture flasks, processed for total RNA isolation, and analyzed for gene expression by microarray (Illumina Human HT12 Expression BeadChip). Microarray gene expression analysis was also performed on MSC from cultures without (−) or with (+) 250 ug/mL treprostinil. Three (3) biological replicates from each condition were analyzed. Of the 77,612 sequences identified among all replicates, only 24,273 were detected above the arbitrary background of 50 counts. 2,984 RNA sequences were unique to Tre(−) cultures, while 1,781 RNA sequences were unique to Tre(+) cultures (panel A). Genes detected in both conditions were further analyzed for differential expression (panel). […] Genes that are expressed only in Tre(−) cultures (that is to say, completely turned off in the Tre(+) cultures) are shown in Table 5.

With `CCCCC[C@H](O)CC[C@@H]1[C@H]2Cc3cccc(OCC(=O)O)c3C[C@H]2C[C@H]1O` [treprostinil] the “ASPM (NM_018136) expression, Rep 1-3” value was 20 counts and 27 counts and 30 counts, the “ATF3 (NM_001030287) expression, Rep 1-3” value was 1001 counts and 1579 counts and 1041 counts and the “ATP6V0D2 (NM_152565) expression, Rep 1-3” value was 547 counts and 893 counts and 499 counts. The “BMP6 (NM_001718) expression, Rep 1-3” value was 1210 counts and 1581 counts and 1181 counts, the “C11orf96 (NM_001145033) expression, Rep 1-3” value was 2050 counts and 2381 counts and 1885 counts and the “C13orf33 (NM_032849) expression, Rep 1-3” value was 17304 counts and 24329 counts and 16255 counts. The “CALD1 (NM_033140) expression, Rep 1-3” value was 0 counts, the “CD55 (NM_000574) expression, Rep 1-3” value was 7472 counts and 9108 counts and 6555 counts and the “CD55 (NM_001114752) expression, Rep 1-3” value was 2497 counts and 3119 counts and 2372 counts. For the same molecule, the “COL6A3 (NM_004369) expression, Rep 1-3” value was 5033 counts and 4570 counts and 4303 counts, the “CPA4 (NM_016352) expression, Rep 1-3” value was 51 counts and 62 counts and 45 counts and the “CXCL12 (NM_199168) expression, Rep 1-3” value was 853 counts and 627 counts and 534 counts. The “DDAH1 (NM_001134445) expression, Rep 1-3” value was 136 counts and 155 counts and 107 counts, the “DKFZp547J0510 (CDNA FLJ42650 fis, clone BRACE3027478) expression, Rep 1-3” value was 183 counts and 135 counts and 125 counts and the “DUSP1 (NM_004417) expression, Rep 1-3” value was 825 counts and 1489 counts and 963 counts. For the same molecule, the “FAM84A (NM_145175) expression, Rep 1-3” value was 63 counts and 40 counts and 32 counts, the “GDF5 (NM_000557) expression, Rep 1-3” value was 83 counts and 64 counts and 65 counts and the “GDF15 (NM_004864) expression, Rep 1-3” value was 11450 counts and 18978 counts and 10088 counts. For the same molecule, the “GDNF (NM_000514) expression, Rep 1-3” value was 689 counts and 845 counts and 824 counts, the “GPRC5A (NM_003979) expression, Rep 1-3” value was 4151 counts and 5981 counts and 3920 counts and the “HAS1 (NM_001523) expression, Rep 1-3, second entry” value was 1355 counts and 730 counts and 789 counts. For the same molecule, the “HSD11B1 (NM_005525) expression, Rep 1-3” value was 822 counts and 966 counts and 758 counts, the “IDH1 (NM_005896) expression, Rep 1-3” value was 1920 counts and 2406 counts and 1792 counts and the “IER3 (NM_003897) expression, Rep 1-3” value was 2769 counts and 3595 counts and 2558 counts. For the same molecule, the “IGFBP1 (NM_000596) expression, Rep 1-3” value was 5468 counts and 8123 counts and 5321 counts, the “IL6 (NM_000600) expression, Rep 1-3” value was 6490 counts and 8445 counts and 5640 counts and the “IL11 (NM_000641) expression, Rep 1-3” value was 851 counts and 1237 counts and 700 counts. The “ISLR (NM_005545) expression, Rep 1-3” value was 612 counts and 543 counts and 490 counts, the “KTN1 (NM_001079522) expression, Rep 1-3” value was 531 counts and 612 counts and 596 counts and the “KYNU (NM_003937) expression, Rep 1-3” value was 867 counts and 922 counts and 797 counts. For the same molecule, the “LIPG (NM_006033) expression, Rep 1-3” value was 1552 counts and 1946 counts and 1607 counts, the “MEST (NM_177525) expression, Rep 1-3” value was 367 counts and 268 counts and 258 counts and the “METTL7A (NM_014033) expression, Rep 1-3” value was 146 counts and 95 counts and 85 counts. The “MYLK (NM_053025) expression, Rep 1-3” value was 0 counts, the “NAP1L3 (NM_004538) expression, Rep 1-3” value was 68 counts and 35 counts and 42 counts and the “NGFR (NM_002507) expression, Rep 1-3” value was 1217 counts and 1818 counts and 1074 counts. For the same molecule, the “NR4A2 (NM_006186) expression, Rep 1-3” value was 635 counts and 810 counts and 592 counts, the “OLFML1 (NM_198474) expression, Rep 1-3 (Table 4)” value was 177 counts and 128 counts and 114 counts and the “PALLD (NM_001166110) expression, Rep 1-3” value was 1158 counts and 885 counts and 1055 counts. The “PAQR5 (NM_017705) expression, Rep 1-3” value was 703 counts and 745 counts and 664 counts, the “PDE4B (NM_001037339) expression, Rep 1-3” value was 1160 counts and 1371 counts and 1056 counts and the “PDE4D (NM_001197221) expression, Rep 1-3” value was 1130 counts and 1170 counts and 1071 counts. The “PDE4D (NM_001197222) expression, Rep 1-3” value was 1417 counts and 2044 counts and 1570 counts, the “PDE5A (NM_033430) expression, Rep 1-3” value was 174 counts and 286 counts and 206 counts and the “PDK4 (NM_002612) expression, Rep 1-3” value was 1296 counts and 1726 counts and 1173 counts. For the same molecule, the “PITPNC1 (NM_181671) expression, Rep 1-3” value was 702 counts and 1007 counts and 764 counts, the “PLIN2 (NM_001122) expression, Rep 1-3” value was 82301 counts and 124225 counts and 72254 counts and the “PLOD2 (NM_000935) expression, Rep 1-3” value was 1169 counts and 1679 counts and 925 counts. The “PRELP (NM_002725) expression, Rep 1-3” value was 159 counts and 104 counts and 80 counts, the “PRKAG2 (NM_024429) expression, Rep 1-3” value was 7233 counts and 8152 counts and 6080 counts and the “PTP4A1 (NM_003463) expression, Rep 1-3” value was 849 counts and 696 counts and 510 counts. The “RCAN1 (NM_203418) expression, Rep 1-3” value was 7766 counts and 11997 counts and 6962 counts, the “RCAN2 (NM_001251974) expression, Rep 1-3” value was 129 counts and 109 counts and 76 counts and the “RND3 (NM_005168) expression, Rep 1-3” value was 48372 counts and 65016 counts and 41881 counts. For the same molecule, the “S100A4 (NM_002961) expression, Rep 1-3” value was 149 counts and 114 counts and 113 counts, the “SAT1 (transcript variant 2, non-coding RNA) expression, Rep 1-3” value was 1141 counts and 1529 counts and 954 counts and the “SCG2 (NM_003469) expression, Rep 1-3” value was 1014 counts and 1187 counts and 1069 counts. For the same molecule, the “SEC31A (NM_001077207) expression, Rep 1-3” value was 737 counts and 887 counts and 573 counts, the “SIK1 (NM_173354) expression, Rep 1-3” value was 1144 counts and 1320 counts and 1086 counts and the “SLC2A12 (NM_145176) expression, Rep 1-3” value was 110 counts and 114 counts and 92 counts. For the same molecule, the “SLC3A2 (NM_001013251) expression, Rep 1-3” value was 31831 counts and 39703 counts and 29042 counts and the “SLC6A15 (NM_182767) expression, Rep 1-3” value was 1201 counts and 1568 counts and 1062 counts.
